Data reported in US8389768B2, “Methods and compositions comprising novel cationic lipids” (The University of North Carolina at Chapel Hill, priority 2008, dated 2013).
Read-outs that look alike come from different tables or passages of the source.

Legend:
[1] = tested on: ERK1/2; assay: ERK1/2 activation in dendritic cells; type: cell-based; conditions: low concentration (1 μM)
Text: Total ERK1/2 expression remained unperturbed under all conditions.

[2] = tested on: H460 cells; assay: Chemosensitization study with cisplatin (MTT assay); type: cell-based, human; conditions: 48 h
Description: (§1) The cell viability values shown are the averages of triplicate experiments performed on the same day. […] Data=mean, n=3.
H460 cells (1×10^4 per well) were seeded into 12-well plates. Cells were incubated with different lipids at 10 μM and cisplatin (Sigma-Aldrich, St. Louis, Mo.) at different concentrations in serum-containing medium at 37° C. Cell viability was detected by the MTT assay 48 h later.
(§2) The cytotoxic effects of the three novel lipids at various concentrations were assessed in H460 cells after exposure to lipids 1-3 and DOTAP for 48 h using the MTT assay (FIG. 5A). […] To assess the chemo-sensitization ability of these lipids to anticancer drugs such as cisplatin, H460 cells were exposed to each of these agents for 48 h, alone and in combination with cisplatin.

[3] = tested on: H460 cells; assay: Flow cytometry with PI staining (apoptosis rate) after free lipid; type: cell-based, human; conditions: 10 μM lipid, 3 h
Text: There was no statistically significant difference between the cytotoxicities of DSGLA and lipid 1.

[4] = tested on: B16F10 melanoma cells; assay: Intracellular uptake of fluorescently-labeled siRNA in B16F10 cells; type: cell-based; conditions: 4 h, CY3-siRNA, lipid as cationic lipid of LPD-PEG / LPD-PEG-AA, vs DOTAP, AA vs no AA
Description: FIG. 9 presents fluorescence photographs of B16F10 cells after a 4 h treatment with 3′ CY3-labeled siRNA against an irrelevant target in LPD-PEG or LPD-PEG-AA nanoparticles formulated with the cationic lipid DSAA, DSGLA, or DOTAP.
We post inserted PEGylated lipids onto a LPD formulation, a nonviral vector developed in our lab as a nanocarrier for siRNA delivery, to increase the serum stability. In addition, we also tethered anisamide, a compound that specifically binds to the sigma receptor, to the distal end of PEG as a targeting ligand. […] Furthermore, the fluorescence signal in the cells treated with LPD-PEG-AA was much stronger than that of cells treated with LPD-PEG.

[5] = tested on: B16F10 cells (that stably express luciferase); assay: In vitro luciferase gene silencing; type: cell-based; conditions: 24 h, 37° C., lipid as cationic lipid of the LPD formulation, vs DOTAP and DSGLA, AA vs no AA
Text: We examined the gene silencing effect by siRNA in different compositions. […] Furthermore, the silencing effect in the cells treated with LPD-PEG-AA was much stronger than that of cells treated with LPD-PEG.

[6] = tested on: H460 cells; assay: In vitro transfection (pCMV-Luc luciferase reporter gene delivery); type: cell-based, human; conditions: presence of serum, cholesterol co-lipid 1:1, pCMV-Luc, lipid/DNA charge ratios 8:1 to 1:1
Description: RLU/pgram of protein was plotted against the lipid to DNA (+/−) charge ratios. The transfection efficiencies of the lipids were compared to that of commercially available N-(2,3-dioleoyloxy) propyl)-N,N,N-trimethylammonium chloride (DOTAP) and Lipofectamine™ 2000. The transfection values shown are the average of triplicate experiments performed on the same day.
H460 human large-cell lung carcinoma cells were seeded at a density of 20,000 cells per well in a 96-well plate 18-24 h prior to the transfection. Plasmid DNA (0.3 μg) was complexed with varying amounts of lipids (0.9-7.2 nmol) in plain RPMI medium (total volume of 100 μL) for 20 min. The charge ratios were varied from 1:1 to 8:1 (+/−) over these ranges of the lipids. The complexes were then added to the cells. After 3 h of incubation, 100 μL of RPMI with 20% FBS was added to the cells. The reporter gene activity was estimated after 24 h. The cells were washed twice with phosphate-buffered saline (PBS, 100 μL each) and lysed in 100 μL of lysis buffer (0.1 M Tris-HCl, 2 mM EDTA, 0.5% Triton X100, pH 7.8). Care was taken to ensure complete lysis. The cell lysate was then centrifuged at 14,000 rpm for 5 min. […] The protein concentration within the cellular lysates was quantified with the BSA standards from the Micro BSA™ Protein assay kit as supplied by Pierce Chemical Company (Rockford, Ill.). […]

[7] = tested on: H460 cells; assay: Cellular growth inhibition study (MTT assay)
Description: as §1
H460 cells (1×10^4 per well) were seeded into 12-well plates. Cells were treated with different lipids at various concentrations in serum-containing medium at 37° C. for 72 h. Cell viability was then detected by an MTT assay. Briefly, 100 μL of the MTT solution (15 mg in 50 mL of PBS) was added to each well, and the cells were incubated for 4 h at 37° C. The medium was removed, and the formazan crystals formed in the cells were dissolved in DMSO. Absorbance at 570 nm was measured in an Ultramark Microplate Imaging System. The data are expressed as the percent of viable cells compared to the untreated control cells.
as §2

Question: How did the ERK1/2 activation [1] turn out when `CCCCCCCC/C=C\CCCCCCCC(=O)OCC(C[N+](C)(C)C)OC(=O)CCCCCCC/C=C\CCCCCCCC.[Cl-]` (stereo not drawn) [DOTAP] was run?
Answer: Its ERK1/2 activation is “increased ERK1/2 activation”.

Question: And the “sensitization of cells to cisplatin” value ([2]; lipid 10 μM)?
Answer: Its value is “not”.

Question: What about the “apoptosis rate (flow cytometry with PI staining)” value [3] of the same compound?
Answer: Its value is 4.7±0.5%.

Question: `CCCCCCCCCCCCCCCCCC[N+](C)(CCCCCCCCCCCCCCCCCC)CCNC(=O)[C@@H](N)CCCNC(=N)N` [DSAA, N-methyl-N-(2-(arginoylamino)ethyl)-N,N-Dioctadecyl aminium chloride] was tested. Which “uptake of fluorescently-labeled siRNA (fluorescence photographs)” value [4] did it give?
Answer: Its value is “much greater”.

Question: What about the “silencing effect of anti-luciferase siRNA” value [5] of the same compound?
Answer: The value was “greater”.

Question: What does the source list for `N.N.[Cl][Pt][Cl]` [cisplatin]?
Answer: IC50 ([2]; cisplatin alone, read-out: IC50 of cisplatin): ~12 µM; IC50 ([2]; with lipids 1-3 (10 μM), read-out: IC50 of cisplatin after treatment with lipids 1-3): 3.5 µM

Question: “N,N-di-myristoyl-N-methyl-N-2[N′—(N^6-guanidino-L-lysinyl)]aminoethyl ammonium chloride [lipid 1]” was tested. Which “transfection efficiency (luciferase activity, RLU per μg protein)” value [6] did it give?
Answer: Its value is “comparable to that of DOTAP and Lipofectamine 2000”.

Question: And the “apoptosis rate (flow cytometry with PI staining)” value [3]?
Answer: The value was 10.4±3.0%.

Question: What about the EC50 [7] of the same compound?
Answer: Its EC50 is ~16 µM.

Question: What does the source list for “N,N-dimyristoyl-N-methyl-N-2[N′—(N2, N6-di-guanidino-L-lysinyl)]aminoethyl ammonium chloride [lipid 3]”?
Answer: transfection efficiency (luciferase activity, RLU per μg protein) [6]: comparable to that of DOTAP and Lipofectamine 2000; order of cytotoxicity ([7]; 20 μM concentration of the corresponding lipids): lipid 1>lipid 3>lipid 2>DOTAP
